Test results reported in PubChem BioAssay (NCI).
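Assay format: 96-well plates, 48-hour exposure. Abbreviation: GI50, concentration required for 50% inhibition of growth. At the TGI there is no net growth.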

Tests used:
Test in all cases: NCI anticancer screen, dose series, 48 h
786-0 renal = tested on: 786-0 renal
A498 renal = tested on: A498 renal
A549 NSCLC = tested on: A549 NSCLC
ACHN renal = tested on: ACHN renal
BT-549 breast = tested on: BT-549 breast
CAKI-1 renal = tested on: CAKI-1 renal
CCRF-CEM leukemia = tested on: CCRF-CEM leukemia
COLO 205 colon = tested on: COLO 205 colon
DU-145 prostate = tested on: DU-145 prostate
EKVX NSCLC = tested on: EKVX NSCLC
HCC-2998 colon = tested on: HCC-2998 colon
HCT-116 colon = tested on: HCT-116 colon
HCT-15 colon = tested on: HCT-15 colon
HL-60(TB) leukemia = tested on: HL-60(TB) leukemia
HOP-62 NSCLC = tested on: HOP-62 NSCLC
HOP-92 NSCLC = tested on: HOP-92 NSCLC
HS 578T breast = tested on: HS 578T breast
HT29 colon = tested on: HT29 colon
IGROV1 ovarian = tested on: IGROV1 ovarian
K-562 leukemia = tested on: K-562 leukemia
KM12 colon = tested on: KM12 colon
LOX IMVI melanoma = tested on: LOX IMVI melanoma
M14 melanoma = tested on: M14 melanoma
MALME-3M melanoma = tested on: MALME-3M melanoma
MCF7 breast = tested on: MCF7 breast
MDA-MB-231 breast = tested on: MDA-MB-231 breast
MDA-MB-435 = tested on: MDA-MB-435
MDA-MB-468 breast = tested on: MDA-MB-468 breast
MOLT-4 leukemia = tested on: MOLT-4 leukemia
NCI-H226 lung = tested on: NCI-H226 lung
NCI-H23 lung = tested on: NCI-H23 lung
NCI-H460 lung = tested on: NCI-H460 lung
NCI-H522 lung = tested on: NCI-H522 lung
OVCAR-3 ovarian = tested on: OVCAR-3 ovarian
OVCAR-4 ovarian = tested on: OVCAR-4 ovarian
OVCAR-5 ovarian = tested on: OVCAR-5 ovarian
OVCAR-8 ovarian = tested on: OVCAR-8 ovarian
PC-3 prostate = tested on: PC-3 prostate
RPMI-8226 leukemia = tested on: RPMI-8226 leukemia
RXF 393 renal = tested on: RXF 393 renal
SF-268 CNS = tested on: SF-268 CNS
SF-295 CNS = tested on: SF-295 CNS
SF-539 CNS = tested on: SF-539 CNS
SK-MEL-28 melanoma = tested on: SK-MEL-28 melanoma
SK-MEL-5 melanoma = tested on: SK-MEL-5 melanoma
SK-OV-3 ovarian = tested on: SK-OV-3 ovarian
SN12C renal = tested on: SN12C renal
SNB-19 CNS = tested on: SNB-19 CNS
SNB-75 CNS = tested on: SNB-75 CNS
SR leukemia = tested on: SR leukemia
SW-620 colon = tested on: SW-620 colon
T-47D breast = tested on: T-47D breast
TK-10 renal = tested on: TK-10 renal
U251 CNS = tested on: U251 CNS
UACC-257 melanoma = tested on: UACC-257 melanoma
UACC-62 melanoma = tested on: UACC-62 melanoma
UO-31 renal = tested on: UO-31 renal

CCC(C)(C)c1ccc(OCCCCCCN2CCN(c3ccncc3)CC2)cc1
GI50 (786-0 renal): 1.67 µM
TGI (786-0 renal): 3.15 µM
GI50 (A498 renal): 17.9 µM
TGI (A498 renal): 34.6 µM
GI50 (A549 NSCLC): 10.6 µM
TGI (A549 NSCLC): 26.6 µM
GI50 (ACHN renal): 6.33 µM
TGI (ACHN renal): 19.5 µM
GI50 (BT-549 breast): 3.07 µM
TGI (BT-549 breast): 12.2 µM
GI50 (CAKI-1 renal): 4.97 µM
TGI (CAKI-1 renal): 18.6 µM
GI50 (CCRF-CEM leukemia): 2.02 µM
TGI (CCRF-CEM leukemia): 10.3 µM
GI50 (COLO 205 colon): 1.66 µM
TGI (COLO 205 colon): 3.33 µM
GI50 (DU-145 prostate): 5.27 µM
TGI (DU-145 prostate): 17.6 µM
GI50 (EKVX NSCLC): 4.14 µM
TGI (EKVX NSCLC): 16.5 µM
GI50 (HCC-2998 colon): 1.87 µM
TGI (HCC-2998 colon): 3.5 µM
GI50 (HCT-116 colon): 1.6 µM
TGI (HCT-116 colon): 3.85 µM
GI50 (HCT-15 colon): 1.75 µM
TGI (HCT-15 colon): 3.88 µM
GI50 (HL-60(TB) leukemia): 1.68 µM
TGI (HL-60(TB) leukemia): 4.06 µM
GI50 (HOP-62 NSCLC): 6.77 µM
TGI (HOP-62 NSCLC): 23.8 µM
GI50 (HOP-92 NSCLC): 2.17 µM
TGI (HOP-92 NSCLC): 15.4 µM
GI50 (HS 578T breast): 7.73 µM
TGI (HS 578T breast): 26.9 µM
GI50 (HT29 colon): 2.49 µM
TGI (HT29 colon): 8.86 µM
GI50 (IGROV1 ovarian): 10.8 µM
TGI (IGROV1 ovarian): 24.4 µM
GI50 (K-562 leukemia): 1.52 µM
TGI (K-562 leukemia): 6.8 µM
GI50 (KM12 colon): 4.17 µM
TGI (KM12 colon): 15.9 µM
GI50 (LOX IMVI melanoma): 1.81 µM
TGI (LOX IMVI melanoma): 3.4 µM
GI50 (M14 melanoma): 1.58 µM
TGI (M14 melanoma): 3.39 µM
GI50 (MALME-3M melanoma): 5.26 µM
TGI (MALME-3M melanoma): 17.3 µM
GI50 (MCF7 breast): 1.73 µM
TGI (MCF7 breast): 3.95 µM
GI50 (MDA-MB-231 breast): 3.16 µM
TGI (MDA-MB-231 breast): 12.2 µM
GI50 (MDA-MB-435): 2.5 µM
TGI (MDA-MB-435): 8.34 µM
GI50 (MDA-MB-468 breast): 1.76 µM
TGI (MDA-MB-468 breast): 3.65 µM
GI50 (MOLT-4 leukemia): 3.14 µM
TGI (MOLT-4 leukemia): 10.1 µM
GI50 (NCI-H226 lung): 10.6 µM
TGI (NCI-H226 lung): 23.7 µM
GI50 (NCI-H23 lung): 3.65 µM
TGI (NCI-H23 lung): 14 µM
GI50 (NCI-H460 lung): 2.08 µM
TGI (NCI-H460 lung): 4.77 µM
GI50 (NCI-H522 lung): 11.8 µM
TGI (NCI-H522 lung): 26.5 µM
GI50 (OVCAR-3 ovarian): 3.86 µM
TGI (OVCAR-3 ovarian): 16.2 µM
GI50 (OVCAR-4 ovarian): 6.33 µM
TGI (OVCAR-4 ovarian): 21 µM
GI50 (OVCAR-5 ovarian): 13.4 µM
TGI (OVCAR-5 ovarian): 26.2 µM
GI50 (OVCAR-8 ovarian): 10.2 µM
TGI (OVCAR-8 ovarian): 30.1 µM
GI50 (PC-3 prostate): 3.63 µM
TGI (PC-3 prostate): 16.2 µM
GI50 (RPMI-8226 leukemia): 2.06 µM
TGI (RPMI-8226 leukemia): 4.98 µM
GI50 (RXF 393 renal): 1.89 µM
TGI (RXF 393 renal): 8.42 µM
GI50 (SF-268 CNS): 11.8 µM
TGI (SF-268 CNS): 27.9 µM
GI50 (SF-295 CNS): 1.9 µM
TGI (SF-295 CNS): 3.74 µM
GI50 (SF-539 CNS): 1.84 µM
TGI (SF-539 CNS): 3.91 µM
GI50 (SK-MEL-28 melanoma): 3.71 µM
TGI (SK-MEL-28 melanoma): 13.3 µM
GI50 (SK-MEL-5 melanoma): 1.79 µM
TGI (SK-MEL-5 melanoma): 3.58 µM
GI50 (SK-OV-3 ovarian): 14.4 µM
TGI (SK-OV-3 ovarian): 29.8 µM
GI50 (SN12C renal): 10.2 µM
TGI (SN12C renal): 22.4 µM
GI50 (SNB-19 CNS): 8.19 µM
TGI (SNB-19 CNS): 22.2 µM
GI50 (SNB-75 CNS): 8.03 µM
TGI (SNB-75 CNS): 22.4 µM
GI50 (SR leukemia): 2.13 µM
TGI (SR leukemia): 9.38 µM
GI50 (SW-620 colon): 1.66 µM
TGI (SW-620 colon): 3.69 µM
GI50 (T-47D breast): 2.63 µM
TGI (T-47D breast): 8.12 µM
GI50 (TK-10 renal): 14.6 µM
TGI (TK-10 renal): 28.7 µM
GI50 (U251 CNS): 3.06 µM
TGI (U251 CNS): 11.8 µM
GI50 (UACC-257 melanoma): 10.7 µM
TGI (UACC-257 melanoma): 23.8 µM
GI50 (UACC-62 melanoma): 11.8 µM
TGI (UACC-62 melanoma): 24.9 µM
GI50 (UO-31 renal): 10 µM
TGI (UO-31 renal): 22.1 µM
